The structures appear in SMILES notation. Calls of active or inactive are those of the source. The rule behind the calls is not given here. Bounds are passed on as bounds.

Series [1] is described as follows: MRT in ICR mouse at 2 mg/kg, ip measured upto 24 hrs by LC-MS/MS analysis. It is filed as ADME, organism-based. The conditions noted are these: in vivo.
The test system of series [2] is PANC-1. Kind of series: In vivo antitumor activity against human PANC-1 cells xenografted in Balb/c mouse model assessed as reduction in H3K9me2 level in tumor at 2 mg/kg, ip treated for 22 days relative to control. It is filed as functional, organism-based. As to conditions: time 22.0 day. For orientation: Xenograft models place foreign cells or tissue in a host animal.

The target in series [3] is T1, Histone-lysine N-methyltransferase EHMT1 (Homo sapiens) (UniProt Q9H9B1).
T1 sequence (whole entry): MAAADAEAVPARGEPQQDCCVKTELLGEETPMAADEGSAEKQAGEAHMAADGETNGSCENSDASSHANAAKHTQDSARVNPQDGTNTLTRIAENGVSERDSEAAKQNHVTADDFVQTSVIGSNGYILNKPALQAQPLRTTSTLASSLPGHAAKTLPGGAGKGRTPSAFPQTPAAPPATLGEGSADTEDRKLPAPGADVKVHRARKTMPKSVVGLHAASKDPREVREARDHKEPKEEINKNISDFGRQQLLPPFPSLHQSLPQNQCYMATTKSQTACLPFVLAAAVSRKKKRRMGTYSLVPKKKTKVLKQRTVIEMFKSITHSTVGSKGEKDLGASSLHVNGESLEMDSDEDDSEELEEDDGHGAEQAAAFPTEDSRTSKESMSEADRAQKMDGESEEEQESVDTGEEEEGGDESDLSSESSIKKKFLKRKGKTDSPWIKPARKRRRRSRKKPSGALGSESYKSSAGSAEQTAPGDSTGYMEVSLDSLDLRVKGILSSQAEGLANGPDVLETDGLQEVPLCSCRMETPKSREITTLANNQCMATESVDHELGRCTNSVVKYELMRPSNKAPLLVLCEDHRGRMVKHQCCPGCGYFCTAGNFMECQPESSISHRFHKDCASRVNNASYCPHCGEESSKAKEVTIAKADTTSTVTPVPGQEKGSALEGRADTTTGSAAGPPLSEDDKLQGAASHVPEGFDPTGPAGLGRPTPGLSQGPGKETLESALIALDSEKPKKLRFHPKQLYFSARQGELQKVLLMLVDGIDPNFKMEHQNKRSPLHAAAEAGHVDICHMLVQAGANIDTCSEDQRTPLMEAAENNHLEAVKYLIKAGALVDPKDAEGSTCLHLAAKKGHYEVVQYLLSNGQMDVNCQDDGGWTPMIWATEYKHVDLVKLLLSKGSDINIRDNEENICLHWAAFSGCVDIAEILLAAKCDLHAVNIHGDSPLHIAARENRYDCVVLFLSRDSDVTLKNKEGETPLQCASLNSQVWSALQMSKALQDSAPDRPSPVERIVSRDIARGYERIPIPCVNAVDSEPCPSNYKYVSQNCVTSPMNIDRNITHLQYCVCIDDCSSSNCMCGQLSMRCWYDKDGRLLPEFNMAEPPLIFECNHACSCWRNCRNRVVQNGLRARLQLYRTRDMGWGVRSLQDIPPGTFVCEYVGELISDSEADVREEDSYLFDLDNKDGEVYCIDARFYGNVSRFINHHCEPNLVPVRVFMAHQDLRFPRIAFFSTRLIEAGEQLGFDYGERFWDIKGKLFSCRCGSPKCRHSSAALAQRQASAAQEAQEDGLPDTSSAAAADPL
Kind of series: Covalent inhibition of recombinant GLP (unknown origin) assessed as adduct formation intensity by measuring mass after 12 hrs by mass spectrometric analysis.

Series [4] can be described thus: AUC (0 to infinity) in ICR mouse at 2 mg/kg, ip measured upto 24 hrs by LC-MS/MS analysis. In kind it is ADME, organism-based. Set-up: dose 2 mg/kg, time < 24 hrs, route ip. As to conditions: in vivo.
Series [5] concerns the target Histone-lysine N-methyltransferase 2A (Homo sapiens, UniProt Q03164). Kind of series: Inhibition of MLL1 (unknown origin).
Series [6] has as its system MDA-MB-231. In words: Reduction in H3K9me2 level in human MDA-MB-231 cells at 10 uM incubated for 48 hrs followed replaced with fresh medium measured after 24 hrs by Western blot analysis. It is filed as functional, cell-based. For orientation: A western blot detects proteins with antibodies after separation by electrophoresis.
Series [7] addresses T2, Histone-lysine N-methyltransferase EHMT1 (Homo sapiens, UniProt Q9H9B1).
T2 sequence (Q9H9B1 whole entry): T1 sequence (whole entry)
In words: Inhibition of GLP (unknown origin) by AlphaLISA assay.

The target in series [8] is T1, Histone-lysine N-methyltransferase EHMT1 (Homo sapiens). In words: Covalent inhibition of recombinant GLP (unknown origin) assessed as adduct formation intensity by mass spectrometric analysis. As to conditions: time <= 16.0 hrs, TDE = time-dependent effect.
A short description of series [9]: Cmax in ICR mouse at 2 mg/kg, ip measured upto 24 hrs by LC-MS/MS analysis. It is filed as ADME, organism-based. More on the design: time < 24 hrs, dose 2 mg/kg, route ip. As to conditions: in vivo.
Series [10] concerns the target Histone-lysine N-methyltransferase 2B (Homo sapiens, UniProt Q9UMN6). In words: Inhibition of MLL4 (unknown origin).
A short description of series [11]: Metabolic stability in mouse liver microsomes assessed as half life at 0.1 uM measured upto 60 mins by LC-MS/MS analysis. It is filed as ADME, Microsome.
For series [12], the system named is PANC-1. In words: Inhibition of colony formation in human PANC-1 cells at […] incubated for 14 days drug medium changed for every 2 days by crystal violet staining based analysis. In kind it is cell-based. The conditions noted are these: dose 2.5 µM, time 14.0 day.
In series [13] the target is T3, Histone-arginine methyltransferase CARM1 (Homo sapiens, UniProt Q86X55).
T3 sequence (Q86X55 whole entry): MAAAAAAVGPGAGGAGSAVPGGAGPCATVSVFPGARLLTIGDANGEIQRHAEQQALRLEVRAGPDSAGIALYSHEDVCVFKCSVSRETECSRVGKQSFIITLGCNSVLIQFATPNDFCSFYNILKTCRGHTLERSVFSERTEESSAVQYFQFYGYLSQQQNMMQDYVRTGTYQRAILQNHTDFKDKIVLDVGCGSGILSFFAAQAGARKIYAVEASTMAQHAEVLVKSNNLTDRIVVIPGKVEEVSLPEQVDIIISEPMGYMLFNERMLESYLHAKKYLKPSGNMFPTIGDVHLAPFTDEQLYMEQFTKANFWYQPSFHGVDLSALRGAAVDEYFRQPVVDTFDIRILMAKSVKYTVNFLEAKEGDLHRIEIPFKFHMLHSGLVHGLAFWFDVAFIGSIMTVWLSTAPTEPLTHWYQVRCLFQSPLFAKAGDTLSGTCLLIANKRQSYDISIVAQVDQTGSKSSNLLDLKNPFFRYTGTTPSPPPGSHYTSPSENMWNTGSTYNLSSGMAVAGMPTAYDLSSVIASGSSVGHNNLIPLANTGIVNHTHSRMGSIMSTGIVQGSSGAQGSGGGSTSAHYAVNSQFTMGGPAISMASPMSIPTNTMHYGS
Kind of series: Inhibition of PRMT4 (unknown origin).

Series [14] can be described thus: Toxicity in Balb/c mouse xenografted with human PANC-1 cells assessed as body weight change at 2 mg/kg, ip treated for 22 days relative to control. The conditions noted are these: in vivo, 528 h, time 22 day. In kind it is organism-based.

Histone-lysine N-methyltransferase 2A, sequence (Q03164 1-2718 limits assumed): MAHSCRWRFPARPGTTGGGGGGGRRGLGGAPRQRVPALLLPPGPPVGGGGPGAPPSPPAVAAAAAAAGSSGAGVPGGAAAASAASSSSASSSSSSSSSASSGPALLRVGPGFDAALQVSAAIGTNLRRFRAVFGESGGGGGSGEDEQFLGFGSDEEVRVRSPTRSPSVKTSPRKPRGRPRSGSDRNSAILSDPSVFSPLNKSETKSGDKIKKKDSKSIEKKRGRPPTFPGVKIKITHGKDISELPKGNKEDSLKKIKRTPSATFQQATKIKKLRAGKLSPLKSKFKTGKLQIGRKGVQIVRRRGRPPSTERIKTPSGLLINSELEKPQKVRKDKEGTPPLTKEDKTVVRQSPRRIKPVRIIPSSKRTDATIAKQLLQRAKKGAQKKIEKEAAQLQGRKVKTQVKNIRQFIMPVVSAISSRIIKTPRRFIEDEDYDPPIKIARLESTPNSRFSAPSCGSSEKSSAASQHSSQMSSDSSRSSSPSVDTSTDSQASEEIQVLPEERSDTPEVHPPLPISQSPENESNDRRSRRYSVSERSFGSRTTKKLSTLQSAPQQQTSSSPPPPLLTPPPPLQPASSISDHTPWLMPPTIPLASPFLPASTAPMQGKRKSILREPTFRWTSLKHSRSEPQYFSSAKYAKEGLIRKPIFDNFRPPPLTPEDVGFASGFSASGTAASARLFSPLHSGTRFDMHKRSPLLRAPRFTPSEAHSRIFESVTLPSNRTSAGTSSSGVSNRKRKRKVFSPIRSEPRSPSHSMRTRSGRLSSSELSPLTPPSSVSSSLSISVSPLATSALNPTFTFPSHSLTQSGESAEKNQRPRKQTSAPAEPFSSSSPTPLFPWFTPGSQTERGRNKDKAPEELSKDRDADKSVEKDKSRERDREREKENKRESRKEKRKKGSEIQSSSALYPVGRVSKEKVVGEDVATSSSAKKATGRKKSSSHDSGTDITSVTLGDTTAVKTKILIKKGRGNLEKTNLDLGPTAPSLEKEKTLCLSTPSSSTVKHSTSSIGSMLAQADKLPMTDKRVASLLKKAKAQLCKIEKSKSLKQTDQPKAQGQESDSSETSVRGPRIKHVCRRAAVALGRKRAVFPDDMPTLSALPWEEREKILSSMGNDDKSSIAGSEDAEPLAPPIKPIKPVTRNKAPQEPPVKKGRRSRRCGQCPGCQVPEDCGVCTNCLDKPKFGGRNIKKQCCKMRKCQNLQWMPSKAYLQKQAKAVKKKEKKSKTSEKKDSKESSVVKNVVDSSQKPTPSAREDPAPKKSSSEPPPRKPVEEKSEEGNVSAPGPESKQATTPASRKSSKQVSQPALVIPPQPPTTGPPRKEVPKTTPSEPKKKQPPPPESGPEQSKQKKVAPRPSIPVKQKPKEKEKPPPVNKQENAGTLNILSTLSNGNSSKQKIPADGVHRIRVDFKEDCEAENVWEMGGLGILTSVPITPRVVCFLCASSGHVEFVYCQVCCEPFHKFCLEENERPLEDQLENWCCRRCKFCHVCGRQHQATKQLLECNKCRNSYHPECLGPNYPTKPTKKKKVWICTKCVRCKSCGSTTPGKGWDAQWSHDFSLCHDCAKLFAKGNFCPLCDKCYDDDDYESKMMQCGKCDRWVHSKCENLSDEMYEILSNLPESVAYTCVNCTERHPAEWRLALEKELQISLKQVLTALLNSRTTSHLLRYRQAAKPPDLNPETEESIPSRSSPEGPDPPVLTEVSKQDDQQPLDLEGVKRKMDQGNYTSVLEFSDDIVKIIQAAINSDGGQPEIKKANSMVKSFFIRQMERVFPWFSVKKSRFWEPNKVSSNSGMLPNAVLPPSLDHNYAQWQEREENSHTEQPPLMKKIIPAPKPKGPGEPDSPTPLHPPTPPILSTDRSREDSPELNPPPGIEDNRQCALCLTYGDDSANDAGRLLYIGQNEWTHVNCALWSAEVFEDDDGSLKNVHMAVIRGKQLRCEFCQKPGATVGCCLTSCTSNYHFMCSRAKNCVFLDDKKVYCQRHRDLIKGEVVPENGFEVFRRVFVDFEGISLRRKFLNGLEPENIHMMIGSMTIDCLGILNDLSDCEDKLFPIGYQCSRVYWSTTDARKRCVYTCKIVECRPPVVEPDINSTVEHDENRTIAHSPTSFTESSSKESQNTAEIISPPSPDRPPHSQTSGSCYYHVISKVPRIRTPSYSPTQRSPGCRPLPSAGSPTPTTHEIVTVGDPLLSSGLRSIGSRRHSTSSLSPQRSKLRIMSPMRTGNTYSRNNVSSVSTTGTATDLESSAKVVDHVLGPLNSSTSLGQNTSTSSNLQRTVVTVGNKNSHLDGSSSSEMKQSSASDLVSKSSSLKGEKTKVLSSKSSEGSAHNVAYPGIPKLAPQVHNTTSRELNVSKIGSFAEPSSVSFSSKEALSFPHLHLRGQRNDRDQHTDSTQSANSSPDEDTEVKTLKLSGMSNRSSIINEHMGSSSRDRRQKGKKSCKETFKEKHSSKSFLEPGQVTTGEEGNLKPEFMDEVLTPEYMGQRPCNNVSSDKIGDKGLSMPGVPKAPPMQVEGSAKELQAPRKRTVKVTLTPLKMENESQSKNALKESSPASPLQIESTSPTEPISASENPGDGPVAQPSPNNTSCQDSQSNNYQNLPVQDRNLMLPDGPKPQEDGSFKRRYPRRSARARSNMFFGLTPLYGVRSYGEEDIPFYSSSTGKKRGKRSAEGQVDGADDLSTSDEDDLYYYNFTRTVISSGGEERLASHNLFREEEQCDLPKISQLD
Histone-lysine N-methyltransferase 2A, sequence (Q03164 2719-3969 limits assumed): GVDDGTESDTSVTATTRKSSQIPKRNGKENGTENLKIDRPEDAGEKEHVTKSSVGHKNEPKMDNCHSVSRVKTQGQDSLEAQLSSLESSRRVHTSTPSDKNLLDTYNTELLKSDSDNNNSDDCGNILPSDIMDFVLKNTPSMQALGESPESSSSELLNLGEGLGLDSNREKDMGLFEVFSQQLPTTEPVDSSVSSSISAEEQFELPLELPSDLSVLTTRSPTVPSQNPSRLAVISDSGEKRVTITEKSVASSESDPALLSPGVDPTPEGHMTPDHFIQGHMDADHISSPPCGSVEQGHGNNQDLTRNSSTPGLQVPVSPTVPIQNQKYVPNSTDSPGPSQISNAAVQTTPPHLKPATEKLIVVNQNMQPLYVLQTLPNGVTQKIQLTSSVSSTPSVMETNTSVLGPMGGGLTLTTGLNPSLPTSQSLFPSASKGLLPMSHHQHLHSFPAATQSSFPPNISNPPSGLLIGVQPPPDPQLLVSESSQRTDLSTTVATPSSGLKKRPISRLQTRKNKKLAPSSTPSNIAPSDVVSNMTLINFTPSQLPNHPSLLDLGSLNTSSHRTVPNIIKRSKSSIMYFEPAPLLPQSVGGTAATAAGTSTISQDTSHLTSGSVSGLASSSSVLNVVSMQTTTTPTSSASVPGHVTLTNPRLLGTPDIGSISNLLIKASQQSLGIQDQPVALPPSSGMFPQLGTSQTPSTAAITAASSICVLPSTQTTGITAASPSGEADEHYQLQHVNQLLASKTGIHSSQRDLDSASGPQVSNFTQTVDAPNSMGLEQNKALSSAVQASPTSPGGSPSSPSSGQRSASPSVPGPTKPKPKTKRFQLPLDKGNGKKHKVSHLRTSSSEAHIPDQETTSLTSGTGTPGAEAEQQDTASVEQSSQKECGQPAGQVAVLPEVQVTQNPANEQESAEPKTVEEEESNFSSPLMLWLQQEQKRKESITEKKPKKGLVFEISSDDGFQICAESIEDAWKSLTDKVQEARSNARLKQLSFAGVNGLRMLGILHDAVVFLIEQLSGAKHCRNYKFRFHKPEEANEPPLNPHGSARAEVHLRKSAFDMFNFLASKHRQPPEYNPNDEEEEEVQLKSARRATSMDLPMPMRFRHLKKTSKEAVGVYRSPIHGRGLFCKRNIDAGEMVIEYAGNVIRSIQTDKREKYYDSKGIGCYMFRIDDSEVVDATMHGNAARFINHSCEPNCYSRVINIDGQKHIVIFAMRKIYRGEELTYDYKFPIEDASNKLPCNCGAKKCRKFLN

On to `C=CC(=O)N(C)c1nc(NC2CCN(C)CC2)c2cc(OC)c(OCCCN3CCCC3)cc2n1`, for which, in [1], the MRT – broadly, the average time that molecules of a dose stay in the body – amounted to 36.6 min. The inhibition entry in series [2], in series [6] and in series [12] was “Active” throughout. The Activity is 53800 Da in series [3] and “Non-Toxic” in series [14]. In addition, the total exposure AUC(0-inf) (usually the area under the concentration-time curve extrapolated to infinity) in [4] stood at 214 ng·h/mL. In addition, the IC50 (commonly the concentration that inhibits the measured activity by half) in series [5] was > 20 µM; in series [7], 0.005 µM; in series [10], > 20 µM; in series [13], 6.68 µM. Moreover, the inhibition entry in series [8] is “Tde”. For the same molecule, the peak level in [9] (Cmax) was 316 ng/mL. Moreover, the half-life (commonly how long it takes for the measured level to halve) at 0.1 µM in series [11] was 71.2 min.

For the origin of these results see ChEMBL document CHEMBL5338815 (J Med Chem, 2023).
